Measured values taken from PubChem BioAssay AID276 (DTP/NCI, 2004).
Where “and” joins values, the source holds several entries; their conditions need not be identical. Equal entries are not always repeated. Inconclusive results and toxic doses are left out. The calls were made as follows: active = survival T/C of 150% or more; inactive = T/C below 125% in these data.

Tested on: B6C3F1 mice, Lewis lung carcinoma iv, survival T/C
Experiment: NCI In Vivo Anticancer Drug Screen. Data for tumor model Lewis Lung Carcinoma (intravenous) in B6C3F1 mice
Conditions: endpoint: median survival time, schedule: Q01DX009 (ip), higher = longer survival
Description: The antitumor activity of compounds was measured in mice bearing transplantable tumors. Survival or tumor size were measured and the results are expressed as the measurement made in the treated group (T) divided by the measurement made in the vehicle treated control group (C). The tumor model used in this assay is Lewis Lung Carcinoma (intravenous) in B6C3F1 mice

[1] = dose: 0.25 mg/kg/injection, vehicle: saline
[2] = dose: 0.5 mg/kg/injection, vehicle: saline
[3] = dose: 1.0 mg/kg/injection, vehicle: saline
[4] = dose: 100.0 mg/kg/injection, vehicle: saline
[5] = dose: 200.0 mg/kg/injection, vehicle: saline
[6] = dose: 400.0 mg/kg/injection, vehicle: saline
[7] = dose: 12.5 mg/kg/injection, vehicle: saline with Tween-80
[8] = dose: 25.0 mg/kg/injection, vehicle: saline with Tween-80
[9] = dose: 50.0 mg/kg/injection, vehicle: saline with Tween-80
[10] = dose: 100.0 mg/kg/injection, vehicle: saline with Tween-80
[11] = dose: 25.0 mg/kg/injection, vehicle: saline
[12] = dose: 50.0 mg/kg/injection, vehicle: saline
[13] = dose: 4.0 mg/kg/injection, vehicle: saline with Tween-80
[14] = dose: 16.0 mg/kg/injection, vehicle: saline with Tween-80
[15] = dose: 1.56 mg/kg/injection, vehicle: saline with Tween-80
[16] = dose: 3.12 mg/kg/injection, vehicle: saline with Tween-80
[17] = dose: 6.25 mg/kg/injection, vehicle: saline with Tween-80
[18] = dose: 6.25 mg/kg/injection, vehicle: Klucel (hydroxypropylcellulose) (HPC)
[19] = dose: 6.25 mg/kg/injection, vehicle: saline
[20] = dose: 12.5 mg/kg/injection, vehicle: saline

Measured: T/C

CCCCCCCCCCCC(=O)NC1CC(O[C@H]2C[C@](O)(C(=O)CO)Cc3c(O)c4c(c(O)c32)C(=O)c2c(OC)cccc2C4=O)OC(C)C1O (some centres not stated)
inactive: dose: 6.25 mg/kg/injection, vehicle: distilled water + Tween-80 96 % of control | dose: 12.5 mg/kg/injection, vehicle: distilled water + Tween-80 100 % of control | dose: 25.0 mg/kg/injection, vehicle: distilled water + Tween-80 102 % of control | dose: 50.0 mg/kg/injection, vehicle: distilled water + Tween-80 119 % of control

COc1cccc2c1C(=O)c1c(O)c3c(c(O)c1C2=O)C[C@@](O)(C(C)=O)C[C@@H]3OC1CC(N)C(O)C(C)O1 (some centres not stated)
inactive: [1] 86 % of control | [2] 123 % of control | [3] 112 % of control

COC1CC(C)C(OC)c2cc(O)cc(c2O)NC(=O)/C(C)=C/C=C\C(C)C(OC(N)=O)/C(C)=C\C(C)C1OC (configuration not stated)
inactive: dose: 5.0 mg/kg/injection, vehicle: saline + alcohol 115 % of control | dose: 10.0 mg/kg/injection, vehicle: saline + alcohol 88 % of control

[Cl][Pt+2][Cl].[NH-]CC1(C[NH-])CCC1
inactive: dose: 1.56 mg/kg/injection, vehicle: suspension in saline 96 % of control | dose: 3.12 mg/kg/injection, vehicle: suspension in saline 105 % of control

C=C1C(=O)OC2/C=C(\C)CC(O)/C=C(/CO)CC(OC(=O)/C(C)=C/C)C12 (configuration not stated)
inactive: dose: 15.0 mg/kg/injection, vehicle: saline with Tween-80 91 % of control | dose: 30.0 mg/kg/injection, vehicle: saline with Tween-80 101 % of control

Nc1n[nH]c(N)n1
inactive: [4] 109 % of control | [5] 109 % of control | [6] 106 % of control | dose: 800.0 mg/kg/injection, vehicle: saline 115 % of control

COc1cccc(C2NC(=O)c3c(n[nH]c3N)S2)c1O (configuration not stated)
inactive: [7] 114 % of control | [8] 102 % of control | [9] 122 % of control | [10] 99 % of control | dose: 200.0 mg/kg/injection, vehicle: saline with Tween-80 109 % of control

CC(=O)C1=C(O)C2(O)C(=O)c3c(c(C)c4ccc(C)c(O)c4c3O)CC2C(N)C1=O (configuration not stated)
inactive: dose: 3.75 mg/kg/injection, vehicle: saline + alcohol 95 % of control and 105 % of control | dose: 7.3 mg/kg/injection, vehicle: saline + alcohol 102 % of control | dose: 7.5 mg/kg/injection, vehicle: saline + alcohol 95 % of control | dose: 15.0 mg/kg/injection, vehicle: saline + alcohol 102 % of control and 107 % of control | dose: 30.0 mg/kg/injection, vehicle: saline + alcohol 98 % of control and 107 % of control | dose: 60.0 mg/kg/injection, vehicle: saline + alcohol 102 % of control and 110 % of control | dose: 120.0 mg/kg/injection, vehicle: saline + alcohol 112 % of control

CC(=O)CC(=O)CCC(=O)O
inactive: [11] 98 % of control | [12] 103 % of control | [4] 102 % of control | [5] 105 % of control

NC(Cc1ccc(N(CCCl)CCCl)cc1)C(=O)O (configuration not stated)
inactive: dose: 1.0 mg/kg/injection, vehicle: saline with Tween-80 98 % of control | dose: 2.0 mg/kg/injection, vehicle: saline with Tween-80 100 % of control | [13] 104 % of control | [14] 101 % of control

Cn1c2ccccc2c2ccc3c(c21)C(=O)C=CC3=O
inactive: [15] 99 % of control | [16] 106 % of control | [17] 107 % of control | [7] 93 % of control and 101 % of control

CC(=O)Nc1ccc(Nc2ccc(C(=C3C=CC(=[N+](C)CCC#N)C=C3)c3ccc(N(C)CCC#N)cc3)cc2)cc1
inactive: dose: 0.39 mg/kg/injection, vehicle: saline with Tween-80 102 % of control | dose: 0.78 mg/kg/injection, vehicle: saline with Tween-80 102 % of control | [15] 98 % of control | [16] 104 % of control | [17] 97 % of control | [7] 105 % of control

Cc1cc(NCCCCCCNc2cc(C)nc3cc(N(C)C)ccc23)c2ccc(N(C)C)cc2n1
inactive: dose: 3.12 mg/kg/injection, vehicle: distilled water + Tween-80 + alcohol 98 % of control | dose: 6.25 mg/kg/injection, vehicle: distilled water + Tween-80 + alcohol 100 % of control | dose: 12.5 mg/kg/injection, vehicle: distilled water + Tween-80 + alcohol 93 % of control | dose: 25.0 mg/kg/injection, vehicle: distilled water + Tween-80 + alcohol 102 % of control

O=c1ncccn1[C@@H]1O[C@H](CO)[C@H](O)C1O (some centres not stated)
inactive: [11] 92 % of control and 96 % of control | [12] 88 % of control and 101 % of control | [4] 105 % of control | [5] 108 % of control and 119 % of control | [6] 97 % of control and 116 % of control

CCN(C)N=Nc1ccc(C(N)=O)cc1
inactive: [18] 95 % of control | dose: 12.5 mg/kg/injection, vehicle: Klucel (hydroxypropylcellulose) (HPC) 104 % of control | dose: 25.0 mg/kg/injection, vehicle: Klucel (hydroxypropylcellulose) (HPC) 111 % of control | dose: 50.0 mg/kg/injection, vehicle: Klucel (hydroxypropylcellulose) (HPC) 122 % of control

C/C=C/C=C1/OC(C)=C(C(C)=O)C1=O
inactive: [7] 123 % of control | [8] 108 % of control | [9] 93 % of control | [10] 103 % of control

C=C1C(=O)OCC1(C(=O)OCC)C(=O)OCC
inactive: [13] 95 % of control | dose: 8.0 mg/kg/injection, vehicle: saline with Tween-80 103 % of control | [14] 105 % of control | dose: 32.0 mg/kg/injection, vehicle: saline with Tween-80 96 % of control

CC1=C(O)C(=O)[C@@H]2O[C@@H]2C1=O
inactive: dose: 0.78 mg/kg/injection, vehicle: saline 94 % of control and 107 % of control | dose: 1.56 mg/kg/injection, vehicle: saline 89 % of control and 103 % of control | dose: 3.12 mg/kg/injection, vehicle: saline 92 % of control and 104 % of control | [19] 95 % of control and 104 % of control | [20] 100 % of control and 101 % of control

COC12C(COC(=O)NCCO)C3=C(C(=O)C(C)=C(N)C3=O)N1CC1NC12 (configuration not stated)
inactive: dose: 3.12 mg/kg/injection, vehicle: Klucel (hydroxypropylcellulose) (HPC) 111 % of control | [18] 102 % of control

CN=C(N)N/N=C(\C)c1ccc2c(c1)Cc1cc(/C(C)=N/NC(N)=NC)ccc1-2
inactive: dose: 0.37 mg/kg/injection, vehicle: saline with Tween-80 95 % of control | dose: 0.75 mg/kg/injection, vehicle: saline with Tween-80 97 % of control | dose: 1.5 mg/kg/injection, vehicle: saline with Tween-80 94 % of control | dose: 3.0 mg/kg/injection, vehicle: saline with Tween-80 100 % of control

O=C(/C=C(\Cl)C(=O)NO)NO
inactive: [19] 115 % of control | [20] 112 % of control | [12] 110 % of control | [4] 104 % of control

CNC(=O)O/N=C(\CN=[N+]=[N-])C(C)(C)C
inactive: dose: 0.13 mg/kg/injection, vehicle: saline 102 % of control | [1] 102 % of control | [2] 106 % of control | [3] 105 % of control
